This is an account of results in ChEMBL document CHEMBL1155461, “Emerging targets in osteoporosis disease modification” (J Med Chem, 2010).

pIC50: −log10 of the molar value.

Usually pIC50 stands for the negative decadic logarithm of the IC50, by convention in mol/L. As usually defined, the CL/F is the apparent clearance, not corrected for the fraction that reaches the circulation. Usually half-life stands for the time in which the quantity being followed falls by half. A higher half-life goes with slow decline. As usually defined, the inhibition in vivo is the percentage by which the read-out fell short of the control. In general, clearance refers to a measure of how efficiently the substance is removed, as volume per time. Low values mean inefficient removal, high ones efficient removal.

In one series the test system is Osteoclast. Put plainly: Inhibition of osteoclastogenesis in RANKL/M-CSF-stimulated osteoclast. In kind it is functional, cell-based.
Series [1] can be described thus: Induction of osteogenesis in rat ROS 17/2.8 cells assessed as stimulation of cell proliferation at 1 nM. In kind it is functional.
In series [2] the test system is MC3T3-E1. Put plainly: Induction of osteogenesis in mouse MC3T3-E1 cells assessed as increase in bone mineralization at 1 uM. Format: functional.
Series [3] has as its system MC3T3-E1. Put plainly: Induction of osteogenesis in mouse MC3T3-E1 cells assessed as increase in osteoblast differentiation-associated ALP level at 0.01 uM. In kind it is functional.
Series [4] deals with T1, Extracellular calcium-sensing receptor (Homo sapiens, UniProt P41180).
T1 sequence (P41180 whole entry): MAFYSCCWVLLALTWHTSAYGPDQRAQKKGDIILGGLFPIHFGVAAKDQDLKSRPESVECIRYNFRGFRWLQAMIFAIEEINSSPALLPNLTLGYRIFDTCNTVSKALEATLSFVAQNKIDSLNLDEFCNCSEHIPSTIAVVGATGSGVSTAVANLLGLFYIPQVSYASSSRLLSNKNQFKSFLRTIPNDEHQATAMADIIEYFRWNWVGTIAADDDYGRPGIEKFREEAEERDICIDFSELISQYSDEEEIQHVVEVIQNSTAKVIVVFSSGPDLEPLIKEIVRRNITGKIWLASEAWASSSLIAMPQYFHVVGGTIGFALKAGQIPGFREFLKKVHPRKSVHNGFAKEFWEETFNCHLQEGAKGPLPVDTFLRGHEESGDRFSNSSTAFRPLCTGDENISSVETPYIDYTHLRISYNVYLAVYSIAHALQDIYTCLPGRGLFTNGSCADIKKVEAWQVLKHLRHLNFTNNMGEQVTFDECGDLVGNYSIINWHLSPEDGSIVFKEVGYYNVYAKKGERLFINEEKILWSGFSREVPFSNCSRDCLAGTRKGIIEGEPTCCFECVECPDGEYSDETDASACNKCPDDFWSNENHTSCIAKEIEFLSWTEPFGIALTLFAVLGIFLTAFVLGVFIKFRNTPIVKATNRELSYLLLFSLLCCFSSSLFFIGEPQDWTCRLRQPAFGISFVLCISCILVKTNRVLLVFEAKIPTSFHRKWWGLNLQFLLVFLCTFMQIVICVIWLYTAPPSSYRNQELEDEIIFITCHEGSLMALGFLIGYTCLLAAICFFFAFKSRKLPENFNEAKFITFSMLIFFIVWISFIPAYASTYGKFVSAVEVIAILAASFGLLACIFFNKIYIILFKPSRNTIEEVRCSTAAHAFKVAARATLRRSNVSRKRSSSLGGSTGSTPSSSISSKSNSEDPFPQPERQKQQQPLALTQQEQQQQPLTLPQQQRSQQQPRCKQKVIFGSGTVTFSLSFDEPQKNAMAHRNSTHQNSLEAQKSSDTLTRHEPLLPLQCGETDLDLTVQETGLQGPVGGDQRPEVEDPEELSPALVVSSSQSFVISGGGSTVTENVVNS

In series [5] the target is Integrin alpha-V/beta-6 (Homo sapiens) (UniProt P06756+P18564). Put plainly: Inhibition of integrin alpha-V-beta-6-mediated adhesion of human HT-29 cells. Format: cell-based.
Series [6] addresses Integrin alpha-V/beta-5 (Homo sapiens) (UniProt P06756+P18084). As to the kind of experiment: Inhibition of integrin alpha-V-beta-5-mediated adhesion of HEK293 cells. Format: cell-based.
Series [7] in a line: Selectivity for integrin alphaVbeta3 over integrin alpha2Bbeta3.
Another series concerns the target Integrin alpha-V/beta-3 (Homo sapiens, UniProt P05106+P06756). Put plainly: Inhibition of integrin alpha-V-beta-3-mediated adhesion of HEK293 cells. Format: cell-based.
The target in series [8] is Integrin alpha-V/beta-1 (Homo sapiens) (UniProt P05556+P06756). As to the kind of experiment: Inhibition of integrin alpha-V-beta-1-mediated adhesion of HEK293 cells. In kind it is cell-based.
Series [9] in a line: Selectivity for cathepsin K over cathepsin H.
A short description of series [10]: Selectivity for cathepsin K over cathepsin L.
A further series has as its target Cathepsin K (Homo sapiens, UniProt P43235). Put plainly: Inhibition of humanized rabbit cathepsin K.
Series [11] in a line: Selectivity for cathepsin K over cathepsin B.
A short description of series [12]: Selectivity for cathepsin K over cathepsin S.
Series [13] can be described thus: Selectivity for cathepsin K over cathepsin V.
Series [14] in a line: Selectivity for cathepsin K over cathepsin F.
A short description of series [15]: Clearance in po dosed rat. The note with it: in vivo. In kind it is ADME, organism-based.
The nature of series [16]: Half life in po dosed rat. In kind it is ADME, organism-based. The following applies: in vivo.
Series [17] has as its target Prostaglandin E2 receptor EP1 subtype (Homo sapiens, UniProt P34995). Put plainly: Binding affinity to EP1 receptor.
Series [18] concerns Rattus norvegicus. Put plainly: Induction of bone formation in ovariectomized rat assessed as increase in total bone mineral content at 1 mg/kg, sc administered daily for 6 weeks relative to control. Format: functional. The note with it: route subcutaneous.
The subject of series [19] is Homo sapiens. Put plainly: Antiosteoporotic activity in postmenopausal woman with osteoporosis assessed as decrease in bone resorption-associated serum CTX-1 level at 50 mg/kg. In kind it is functional.
Series [20] concerns Homo sapiens. As to the kind of experiment: Antiosteoporotic activity in postmenopausal woman with osteoporosis assessed as increase hip bone mineral density at 50 mg/kg. Format: functional, Bone of hip region.
Series [21] concerns Homo sapiens. As to the kind of experiment: Antiosteoporotic activity in postmenopausal woman with osteoporosis assessed as decrease in bone resorption-associated urinary CTX-1 level at 50 mg/kg. Format: functional. The following applies: Urine.
In series [22] the test system is Homo sapiens. Put plainly: Antiosteoporotic activity in postmenopausal woman with osteoporosis assessed as increase lumbar spine bone mineral density at 50 mg/kg. Format: functional.
Series [23] deals with Rattus norvegicus. Put plainly: Induction of bone formation in ovariectomized rat assessed as bone mineral apposition rate per day at 30 mg/kg, po after 28 days (RVb = 1.43 uM). Format: functional.
Series [24] concerns Rattus norvegicus. Put plainly: Induction of bone formation in ovariectomized rat assessed as increase in bone mineralizing surface area at 30 mg/kg, po after 28 days (RVb = 30.4%). Format: functional.
Series [25] relates to MC3T3-E1. As to the kind of experiment: Induction of osteogenesis in mouse MC3T3-E1 cells assessed as increase in bone mineralization at 0.03 uM. In kind it is functional.
Series [26] has as its system MC3T3-E1. As to the kind of experiment: Induction of osteogenesis in mouse MC3T3-E1 cells assessed as increase in osteoblast differentiation-associated ALP level at 0.03 uM. In kind it is functional.
Series [27] deals with MC3T3-E1. Put plainly: Induction of osteogenesis in mouse MC3T3-E1 cells assessed as increase in osteoblast differentiation-associated collagen synthesis at 0.03 uM. Format: functional.
Series [28] has as its system Rattus norvegicus. As to the kind of experiment: Short duration (5-10 min) elevation in PTH as Cmax in rats after 3 umol/kg intravenous dose. In kind it is functional.
Series [29] can be described thus: Clearance in rat. The note with it: in vivo. In kind it is ADME, organism-based.

Chain of Prostaglandin E2 receptor EP1 subtype (P34995 whole entry): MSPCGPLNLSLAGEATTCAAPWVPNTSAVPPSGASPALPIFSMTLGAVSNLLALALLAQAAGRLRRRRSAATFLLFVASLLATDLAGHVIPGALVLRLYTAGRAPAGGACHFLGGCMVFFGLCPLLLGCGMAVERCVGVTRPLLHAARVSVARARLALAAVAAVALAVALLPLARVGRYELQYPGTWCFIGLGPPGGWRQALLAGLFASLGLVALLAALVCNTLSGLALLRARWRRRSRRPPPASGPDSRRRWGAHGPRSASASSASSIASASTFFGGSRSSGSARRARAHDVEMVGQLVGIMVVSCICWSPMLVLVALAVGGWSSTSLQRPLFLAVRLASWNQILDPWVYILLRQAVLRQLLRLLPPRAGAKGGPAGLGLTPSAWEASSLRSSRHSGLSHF

In the series with Osteoclast, `CC1(C)C(=O)CC[C@]2(C)[C@@H]1CC[C@@]13CC4[C@@H](C[C@H]12)[C@]4(C(=O)O)C3` gave a pIC50 of 5.40.

As to `C[C@@H]1O[C@@H](O[C@H]2[C@H](Oc3cc(O)c4c(c3)O[C@H](c3ccc(O)cc3)CC4=O)O[C@H](CO)[C@@H](O)[C@@H]2O)[C@H](O)[C@H](O)[C@H]1O` [NARINGIN], in series [1], the Activity is 150%.

Regarding `COc1cc2c(O)c3c(O)c(OC)c(O[C@@H]4O[C@H](CO)[C@@H](O)[C@H](O)[C@H]4O)cc3c(O)c2c(O)c1OC`, the Activity in the series with MC3T3-E1 [2] worked out at 115%; in the series on MC3T3-E1 [3], 135%.

On to `CCOC(=O)CCc1ccc(C#N)c(OC[C@H](O)CNC(C)(C)CC2Cc3ccccc3C2)c1`, for which, in [4], the pIC50 is 6.28.

For the compound `O=C(O)C[C@H](Cc1nc(CCCc2ccc3c(n2)NCCC3)no1)c1ccc2c(c1)OCO2`, the Activity in series [5] was found to be 2.7 µM; in series [6] it was 1.7 nM; at Integrin alpha-V/beta-3 it was 0.65 nM; in [8], 2.6 nM. In addition, the Selectivity ratio in [7] amounted to 67.

As for `CS(=O)(=O)c1ccc(-c2cn(CC(F)(F)F)nc2[C@@H]2CCC(Cl)(Cl)C[C@H]2C(=O)NC2(C#N)CC2)cc1`, the Selectivity ratio is greater than 140000 in series [9]; 4700 in series [10]; greater than 16000 in series [11]; 4300 in [12]; 1100 in series [13]; 110 in series [14]. The same compound gave a pIC50 against Cathepsin K of 9.21.

As to `O=C(O)c1ccc(CCCN2C(=O)CC[C@@H]2CC[C@@H](O)Cc2cccc(C(F)(F)F)c2)s1`, in series [15], the CL/F came out at 70 mL/min/kg. Moreover, the half-life in [16] is 12 min.

`CCCCC[C@H](O)/C=C/[C@H]1[C@H](O)CC(=O)[C@@H]1C/C=C\CCCC(=O)O` [DINOPROSTONE] had a pIC50 in [17] of 8.96. Further, the Activity in the series on Rattus norvegicus [18] was 20.6%.

For the compound `CC(C)CNc1nc(C#N)nc(N2CCOCC2)c1N`, the figures for the Selectivity ratio in [10], in series [11] and in series [12] were 111, greater than 556 and 31, respectively.

`CCCN1CCN(c2ccc(C(=O)NC3(C(=O)NCC#N)CCCCC3)cc2)CC1` [BALICATIB]: the values for the inhibition in vivo at 50 mg/kg in the series with Homo sapiens [19] and with Homo sapiens [21] were 61% and 55%, respectively. For the same compound, the Activity with Homo sapiens [20] turned out to be 2.25%; in the series on Homo sapiens [22] it was 4.46%.

As to `CN(c1ccccc1CNc1nc(Nc2ccc3c(c2)CC(=O)N3)ncc1C(F)(F)F)S(C)(=O)=O`, the mineral apposition rate in the series on Rattus norvegicus [23] is 1.96 µm/day. Moreover, the Activity in the series on Rattus norvegicus [24] worked out at 40.6%.

Regarding `C=CCc1ccc(O)c(O[C@@H]2O[C@H](CO[C@@H]3OC[C@](O)(CO)[C@H]3O)[C@@H](O)[C@H](O)[C@H]2O)c1` [MANGLIESIDE B], the Activity is reported as 118% in the series with MC3T3-E1 [25], 114% in the series with MC3T3-E1 [26] and 123% with MC3T3-E1 [27].

In the series with Rattus norvegicus [28], `CCc1cc2c(=O)n(CCc3ccccc3F)c(-c3ccccc3O)nc2cc1C` returned a Cmax PTH of 600 pg/mL. The pIC50 in series [4] is 7.01.

For the compound `CC(C)(CC1Cc2ccccc2C1)NC[C@@H](O)COc1cc(CCC(=O)O)ccc1C#N` [SB-423562], in series [4], the pIC50 was 7.14. For the same compound, the clearance in series [29] is 89 mL/min/kg.
